# Reference: patent publication US20240109868A1, “EP300/CBP MODULATOR, PREPARATION METHOD THEREFOR AND USE THEREOF” (Miracure Biotechnology Limited, priority 2022, published 2024)
# Key:
# [1] = tested on: 22Rv1 Cell; assay: 22RV1 cell growth inhibition, CellTiter-Glo, 72 h; format: cell-based; details: Homo sapiens, 22Rv1, 72 h, 22RV1 cells, 72 h culture
# Outline: (§1)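 Cells seeded at 5×10^3/well overnight in RPMI-1640/10% FBS, then exposed to compound (0.5% DMSO final) for 72 h at 37 °C.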
# [2] = tested on: vCap Cell; assay: vCap cell growth inhibition, CellTiter-Glo, 72 h; format: cell-based; details: Homo sapiens, VCaP, 72 h, vCap cells, 72 h culture
# Outline: as §1
# [3] = biological target: T1, EP300 (Homo sapiens, UniProt Q09472); assay: Ep300 AlphaLISA assay kit; format: biochemical; details: read-out: EP300 ALPHA IC50
# T1 construct: purchased
# T1 sequence (Q09472 whole entry): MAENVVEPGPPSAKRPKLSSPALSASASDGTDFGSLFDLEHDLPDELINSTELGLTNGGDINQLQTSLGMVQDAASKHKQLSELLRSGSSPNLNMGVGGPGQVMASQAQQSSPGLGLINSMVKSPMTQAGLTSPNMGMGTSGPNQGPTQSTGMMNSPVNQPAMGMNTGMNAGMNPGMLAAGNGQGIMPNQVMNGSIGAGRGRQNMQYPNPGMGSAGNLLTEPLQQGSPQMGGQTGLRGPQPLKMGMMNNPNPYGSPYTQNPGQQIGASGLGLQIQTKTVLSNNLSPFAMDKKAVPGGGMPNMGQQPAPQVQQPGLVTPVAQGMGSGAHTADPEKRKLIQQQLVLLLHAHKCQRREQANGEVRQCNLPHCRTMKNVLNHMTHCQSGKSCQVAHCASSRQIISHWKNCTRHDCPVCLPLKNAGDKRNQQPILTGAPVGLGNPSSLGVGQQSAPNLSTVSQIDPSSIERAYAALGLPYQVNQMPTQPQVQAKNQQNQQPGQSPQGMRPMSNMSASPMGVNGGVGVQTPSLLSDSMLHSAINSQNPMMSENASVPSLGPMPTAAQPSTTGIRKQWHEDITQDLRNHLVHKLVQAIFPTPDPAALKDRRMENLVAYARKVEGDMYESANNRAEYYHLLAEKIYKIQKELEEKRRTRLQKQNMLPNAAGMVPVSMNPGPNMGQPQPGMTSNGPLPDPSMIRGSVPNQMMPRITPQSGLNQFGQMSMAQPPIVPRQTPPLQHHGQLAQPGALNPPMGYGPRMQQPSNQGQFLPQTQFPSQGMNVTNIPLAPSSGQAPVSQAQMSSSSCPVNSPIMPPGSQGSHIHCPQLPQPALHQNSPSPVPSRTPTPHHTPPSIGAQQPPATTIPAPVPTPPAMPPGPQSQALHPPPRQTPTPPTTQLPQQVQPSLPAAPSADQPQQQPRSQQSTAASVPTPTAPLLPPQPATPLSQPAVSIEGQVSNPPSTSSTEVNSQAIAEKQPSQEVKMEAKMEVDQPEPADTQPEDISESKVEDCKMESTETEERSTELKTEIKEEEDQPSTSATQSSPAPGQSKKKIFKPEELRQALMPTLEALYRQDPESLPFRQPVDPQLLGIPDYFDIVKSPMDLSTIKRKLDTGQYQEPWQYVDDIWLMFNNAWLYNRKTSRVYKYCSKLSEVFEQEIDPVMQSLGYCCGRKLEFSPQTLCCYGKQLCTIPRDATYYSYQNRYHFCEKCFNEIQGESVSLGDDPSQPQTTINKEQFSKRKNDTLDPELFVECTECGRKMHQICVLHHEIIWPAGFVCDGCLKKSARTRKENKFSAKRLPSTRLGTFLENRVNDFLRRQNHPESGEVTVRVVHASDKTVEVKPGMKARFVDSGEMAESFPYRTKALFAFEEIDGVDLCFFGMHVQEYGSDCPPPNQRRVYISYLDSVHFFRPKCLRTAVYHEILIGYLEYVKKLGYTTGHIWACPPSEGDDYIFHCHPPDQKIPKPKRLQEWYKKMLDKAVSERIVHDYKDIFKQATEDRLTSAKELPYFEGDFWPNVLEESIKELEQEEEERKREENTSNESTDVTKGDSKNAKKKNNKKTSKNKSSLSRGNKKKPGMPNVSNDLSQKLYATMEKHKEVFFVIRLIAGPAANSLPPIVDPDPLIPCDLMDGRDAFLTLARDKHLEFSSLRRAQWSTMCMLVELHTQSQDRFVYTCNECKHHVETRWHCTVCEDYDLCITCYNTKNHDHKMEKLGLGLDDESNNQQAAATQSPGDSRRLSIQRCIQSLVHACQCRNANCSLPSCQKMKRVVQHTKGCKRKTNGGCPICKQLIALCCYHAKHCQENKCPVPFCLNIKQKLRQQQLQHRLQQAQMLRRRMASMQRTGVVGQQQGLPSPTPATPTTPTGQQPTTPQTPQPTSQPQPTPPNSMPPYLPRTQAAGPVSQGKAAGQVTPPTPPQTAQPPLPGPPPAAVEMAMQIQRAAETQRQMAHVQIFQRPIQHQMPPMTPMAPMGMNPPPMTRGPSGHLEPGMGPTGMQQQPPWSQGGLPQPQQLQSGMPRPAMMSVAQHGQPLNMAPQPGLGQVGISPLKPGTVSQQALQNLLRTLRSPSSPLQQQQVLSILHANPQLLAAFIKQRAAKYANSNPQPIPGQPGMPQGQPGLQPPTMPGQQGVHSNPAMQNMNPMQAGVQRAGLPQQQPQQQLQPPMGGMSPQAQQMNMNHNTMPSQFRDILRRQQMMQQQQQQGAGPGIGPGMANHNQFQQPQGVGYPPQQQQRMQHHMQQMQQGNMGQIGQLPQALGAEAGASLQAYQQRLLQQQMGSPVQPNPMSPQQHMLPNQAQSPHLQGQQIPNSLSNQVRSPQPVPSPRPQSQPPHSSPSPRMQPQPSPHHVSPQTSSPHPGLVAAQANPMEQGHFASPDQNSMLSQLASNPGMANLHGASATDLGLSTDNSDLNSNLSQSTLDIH
# Method: The biochemical activity of the EP300 modulators was determined using the Ep300 AlphaLISA® assay kit. The assay is based on the […] of residues in the peptide substrate by enzymatic transfer of acetyl groups from acetyl-CoA to particular lysine. The compounds were incubated with EP300 and then with an antibody combination of an antibody that specifically binds to an acetylated peptide and acceptor beads that bind to an acetylated peptide, followed by streptavidin-labeled donor beads. The alpha counts were read, the data were analyzed using Prism 7.0, and the IC50 values were calculated. The values are shown as mean f SEM (N=2).
# [4] = biological target: T2, CBP bromodomain (Homo sapiens, UniProt Q92793); assay: CBP AlphaLISA assay kit (CBP bromodomain binding to acetylated histone substrate); details: read-out: CBP ALPHA IC50
# T2 construct: purchased
# T2 sequence (Q92793 1085-1192 limits assumed): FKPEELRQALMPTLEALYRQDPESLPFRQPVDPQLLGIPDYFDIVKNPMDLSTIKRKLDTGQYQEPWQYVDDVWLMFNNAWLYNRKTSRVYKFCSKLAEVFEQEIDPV
# Method: The biochemical activity of the CBP inhibitors was determined using the CBP AlphaLISA® assay kit. The assay is based on the binding of the CBP bromodomain to the acetylated histone substrate. The compounds were incubated with CBP and the biotinylated substrate for 30 min. Then acceptor beads were added, followed by 15 min of incubation, and donor beads were added, followed by 15 min of incubation. Then the alpha counts were read, the data were analyzed using Prism 7.0, and the IC50 values were calculated. The values are shown as mean f SEM (N=2).
smiles,measurement,setting,value
CNC(=O)N1CCc2c(c(N3CCCc4cc(-c5cnn(C)c5)c(C(F)F)cc43)nn2C2CCOCC2)C1 [GNE-781],IC50,[1],> 1000 nM
same,IC50,[2],> 1000 nM
same,IC50,[3],< 10 nM
same,IC50,[4],< 10 nM
